These results are taken from patent US20080261994A1, “CYCLOPROPANE COMPOUNDS AND PHARMACEUTICAL USE THEREOF” (Japan Tobacco Inc., priority 2003, published 2008).

As usually defined, the IC50 is the concentration at which inhibition is half-maximal.

Common to all, as to assay type: biochemical
The target of one assay is T1, MMP-1 (Homo sapiens, UniProt P03956).
T1 sequence (P03956 100-469): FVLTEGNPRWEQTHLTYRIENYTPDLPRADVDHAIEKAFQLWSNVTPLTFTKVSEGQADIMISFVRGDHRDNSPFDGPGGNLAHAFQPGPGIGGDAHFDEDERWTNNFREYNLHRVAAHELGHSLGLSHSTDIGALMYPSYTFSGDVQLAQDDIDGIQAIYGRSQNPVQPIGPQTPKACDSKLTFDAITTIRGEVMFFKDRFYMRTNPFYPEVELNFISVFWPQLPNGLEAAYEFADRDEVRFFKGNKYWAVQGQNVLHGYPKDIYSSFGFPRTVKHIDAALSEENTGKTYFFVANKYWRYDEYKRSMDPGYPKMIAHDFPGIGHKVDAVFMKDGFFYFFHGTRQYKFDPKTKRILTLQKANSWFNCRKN
Description: MMP-1 inhibitory action (Type I collagen Activity Measurement kit, FITC-labeled collagen type I). Conditions: MMP-1 inhibitory action, FITC-labeled collagen type I, 37° C. for 3 hr; read-out: IC50 MMP1 (Experimental Example 2).

In a further assay the target is T2, aggrecanase-1 (Homo sapiens, UniProt O75173).
T2 sequence (O75173 213-837): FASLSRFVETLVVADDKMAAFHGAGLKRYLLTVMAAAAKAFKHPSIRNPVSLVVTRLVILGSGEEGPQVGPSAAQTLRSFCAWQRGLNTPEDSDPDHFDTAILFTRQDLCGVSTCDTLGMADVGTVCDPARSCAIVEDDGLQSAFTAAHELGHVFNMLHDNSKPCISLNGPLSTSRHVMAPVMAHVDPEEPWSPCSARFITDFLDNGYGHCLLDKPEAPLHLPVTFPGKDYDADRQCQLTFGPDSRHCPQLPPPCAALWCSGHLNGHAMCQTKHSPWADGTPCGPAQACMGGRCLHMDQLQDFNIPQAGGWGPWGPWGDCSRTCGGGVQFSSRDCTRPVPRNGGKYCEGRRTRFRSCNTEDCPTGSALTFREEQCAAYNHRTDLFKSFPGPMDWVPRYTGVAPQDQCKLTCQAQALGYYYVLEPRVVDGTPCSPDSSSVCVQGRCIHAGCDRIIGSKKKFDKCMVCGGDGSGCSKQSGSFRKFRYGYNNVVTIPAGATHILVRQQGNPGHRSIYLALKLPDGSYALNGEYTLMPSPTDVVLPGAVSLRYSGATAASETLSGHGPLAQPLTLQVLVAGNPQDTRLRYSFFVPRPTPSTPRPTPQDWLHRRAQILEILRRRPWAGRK
In words: Aggrecanase-1 inhibitory action (Particle Assay, GAG release from aggrecan-containing polyacrylamide particles). Conditions: aggrecanase-1 inhibitory action; read-out: IC50 AG1 (Experimental Example 1). The method in brief:
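Readout was dimethylmethylene blue absorbance (595 nm) of glycosaminoglycan liberated into supernatant, calibrated with whale chondroitin sulfate. Substrate was aggrecan in polyacrylamide particles, digested 15 h at 37° C in Tris-HCl; TC50 (μM) derived from inhibition relative to no-enzyme and no-inhibitor controls.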

The target in another assay is T3, Recombinant Human MMP-13 (Homo sapiens, UniProt P45452).
T3 construct: purchased R&D systems 511-MM
Description: MMP-13 inhibitory activity (MMP-13 specific fluorescent substrate with quencher). As to conditions: Recombinant Human MMP-13, fluorescent substrate, 25° C. for 1 h; read-out: IC50 MMP13 (Experimental Example 3). The procedure, abridged:
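IC50 (μM) derived from % inhibition, normalised to wells without enzyme and without inhibitor, fluorescence read at 325/405 nm. Enzyme and compound preceded addition of the quenched 7-MCA…DPA substrate; Tris-HCl buffer, 25 °C for 1 h, acetic-acid stop.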

On to `CC(=O)N1Cc2ccccc2C2(C1)CC2(NS(=O)(=O)c1ccc(-c2ccc(Cl)cc2)s1)C(=O)O` (stereo not drawn) [Example 2-207], for which the concentration for half-maximal inhibition (IC50) on MMP-1 was at least 10000 nM; on aggrecanase-1, under 1000 nM; at Recombinant Human MMP-13 it was under 1000 nM.
Regarding `COC(=O)CCc1cccc(C2CC2(NS(=O)(=O)c2ccc(-c3ccc(Cl)cc3)s2)C(=O)O)c1` (stereo not drawn) [Example 2-208], the IC50 on MMP-1 was at least 1000 nM; on aggrecanase-1 it was under 100 nM; on Recombinant Human MMP-13 it was under 100 nM.
Take `O=C(CCc1cccc(C2CC2(NS(=O)(=O)c2ccc(-c3ccc(Cl)cc3)s2)C(=O)O)c1)N1CCOCC1` (stereo not drawn) [Example 2-209]: the IC50 at MMP-1 is at least 1000 nM; at aggrecanase-1, under 100 nM; at Recombinant Human MMP-13, under 100 nM.
As for `CN1CCN(C(=O)CCc2cccc(C3CC3(NS(=O)(=O)c3ccc(-c4ccc(Cl)cc4)s3)C(=O)O)c2)CC1` (stereo not drawn) [Example 2-210], the half-maximal inhibitory concentration (IC50) at MMP-1 is at least 10000 nM; at aggrecanase-1, under 1000 nM; on Recombinant Human MMP-13, under 100 nM.
For `O=C(CCc1cccc(C2CC2(NS(=O)(=O)c2ccc(-c3ccc(Cl)cc3)s2)C(=O)O)c1)N1CCSCC1` (stereo not drawn) [Example 2-211], in that order: at least 10000 nM, under 100 nM and under 100 nM.
For `O=C(O)Cc1cccc(C2CC2(NS(=O)(=O)c2ccc(-c3cc(C(F)(F)F)on3)s2)C(=O)O)c1` (stereo not drawn) [Example 2-212], in that order: at least 1000 nM, under 100 nM and under 1000 nM.
For `O=C(O)C1(NS(=O)(=O)c2ccc(-c3cc(C(F)(F)F)on3)s2)CC1c1cccc(NCc2cccnc2)c1` (stereo not drawn) [Example 2-213], the half-maximal inhibitory concentration (IC50) at MMP-1 was under 1000 nM; on aggrecanase-1, under 100 nM; at Recombinant Human MMP-13, under 100 nM.
`CN(Cc1cccnc1)c1cccc(C2CC2(NS(=O)(=O)c2ccc(-c3cc(C(F)(F)F)on3)s2)C(=O)O)c1` (stereo not drawn) [Example 2-214]: the figures for the IC50 on MMP-1, on aggrecanase-1 and on Recombinant Human MMP-13 were under 1000 nM, under 100 nM and under 100 nM, respectively.
As to `CN(C)C(=O)c1ccccc1C1CC1(NS(=O)(=O)c1ccc(-c2ccc(Cl)cc2)s1)C(=O)O` (stereo not drawn) [Example 2-215], the half-inhibitory concentration (IC50) is at least 10000 nM at MMP-1, under 100 nM on aggrecanase-1 and under 1000 nM at Recombinant Human MMP-13.
For `CN1CCN(C(=O)c2ccccc2C2CC2(NS(=O)(=O)c2ccc(-c3ccc(Cl)cc3)s2)C(=O)O)CC1` (stereo not drawn) [Example 2-216], in that order: at least 10000 nM, under 1000 nM and under 1000 nM.
For `CC(C)(C)OC(=O)Nc1ccccc1C1CC1(NS(=O)(=O)c1ccc(-c2ccc(Cl)cc2)s1)C(=O)O` (stereo not drawn) [Example 2-217], in that order: at least 10000 nM, under 1000 nM and under 1000 nM.
For `COC(=O)Cc1cccc(C2CC2(NS(=O)(=O)c2ccc(-c3cc(C(F)(F)F)on3)s2)C(=O)O)c1` (stereo not drawn) [Example 2-219], in that order: at least 1000 nM, under 1000 nM and under 100 nM.
For the compound `O=C(Cc1cccc(C2CC2(NS(=O)(=O)c2ccc(-c3cc(C(F)(F)F)on3)s2)C(=O)O)c1)N1CCOCC1` (stereo not drawn) [Example 2-220], the IC50 is at least 1000 nM on MMP-1, under 100 nM at aggrecanase-1 and under 100 nM at Recombinant Human MMP-13.
For `CN1CCN(C(=O)Cc2cccc(C3CC3(NS(=O)(=O)c3ccc(-c4cc(C(F)(F)F)on4)s3)C(=O)O)c2)CC1` (stereo not drawn) [Example 2-221], the results for the concentration for half-maximal inhibition (IC50) at MMP-1, on aggrecanase-1 and at Recombinant Human MMP-13 were at least 1000 nM, under 1000 nM and under 100 nM, respectively.
On the same counts, the results for `O=C(Cc1cccc(C2CC2(NS(=O)(=O)c2ccc(-c3cc(C(F)(F)F)on3)s2)C(=O)O)c1)N1CCC(O)CC1` (stereo not drawn) [Example 2-222] are at least 1000 nM, under 100 nM and under 100 nM.
On the same counts, the results for `CN(C)CCC(=O)Nc1cccc(C2CC2(NS(=O)(=O)c2ccc(-c3ccc(Cl)cc3)s2)C(=O)O)c1` (stereo not drawn) [Example 2-223] are at least 10000 nM, under 1000 nM and under 1000 nM.
On the same counts, the results for `O=C(CCc1cccc(C2CC2(NS(=O)(=O)c2ccc(-c3ccc(Cl)cc3)s2)C(=O)O)c1)N1CCC(O)CC1` (stereo not drawn) [Example 2-224] are at least 1000 nM, under 100 nM and under 100 nM.
On to `O=C(O)C1(NS(=O)(=O)c2ccc(-c3ccc(Cl)cc3)s2)CC1c1ccc(OCc2ccccc2)cc1` (stereo not drawn) [Example 2-225], for which the half-maximal inhibitory concentration (IC50) on MMP-1 is at least 10000 nM; on aggrecanase-1, at least 1000 nM; on Recombinant Human MMP-13, under 1000 nM.
For `O=C(O)C1(NS(=O)(=O)c2ccc(-c3ccc(Cl)cc3)s2)CC1c1ccc(CO)cc1` (stereo not drawn) [Example 2-226], in that order: at least 10000 nM, under 1000 nM and under 1000 nM.
On the same counts, the results for `O=C(O)C1(NS(=O)(=O)c2ccc(-c3ccc(Cl)cc3)s2)CC1(CCCO)c1ccccc1` (stereo not drawn) [Example 2-227] are at least 1000 nM, under 100 nM and under 1000 nM.
On the same counts, the results for `CN(C)c1cccc(C2CC2(NS(=O)(=O)c2ccc(-c3cc(C(F)(F)F)on3)s2)C(=O)O)c1` (stereo not drawn) [Example 2-228] are at least 1000 nM, under 1000 nM and under 1000 nM.
Turning to `O=C(O)C1(NS(=O)(=O)c2ccc(-c3ccc(Cl)cc3)s2)CC1(CO)c1ccccc1` (stereo not drawn) [Example 2-229], the figures for the IC50 at MMP-1, on aggrecanase-1 and on Recombinant Human MMP-13 were at least 10000 nM, under 1000 nM and under 1000 nM, respectively.
For the compound `O=C(CCc1ccccc1C1CC1(NS(=O)(=O)c1ccc(-c2cc(C(F)(F)F)on2)s1)C(=O)O)N1CCOCC1` (stereo not drawn) [Example 2-230], the half-maximal inhibitory concentration (IC50) at MMP-1 was at least 10000 nM; at aggrecanase-1 it was under 1000 nM; at Recombinant Human MMP-13 it was under 100 nM.
For the compound `CN(C)C(=O)CCc1ccccc1C1CC1(NS(=O)(=O)c1ccc(-c2cc(C(F)(F)F)on2)s1)C(=O)O` (stereo not drawn) [Example 2-231], the results for the IC50 at MMP-1, at aggrecanase-1 and at Recombinant Human MMP-13 were at least 1000 nM, under 1000 nM and under 100 nM, respectively.
On the same counts, the results for `CN1CCN(C(=O)CCc2ccccc2C2CC2(NS(=O)(=O)c2ccc(-c3cc(C(F)(F)F)on3)s2)C(=O)O)CC1` (stereo not drawn) [Example 2-232] are at least 1000 nM, under 1000 nM and under 100 nM.
For `O=C(Cc1cccc(C2CC2(NS(=O)(=O)c2ccc(-c3cc(C(F)(F)F)on3)s2)C(=O)O)c1)N[C@H]1CC[C@H](O)CC1` (stereo partly drawn) [Example 2-233], the concentration for half-maximal inhibition (IC50) at MMP-1 was at least 1000 nM; at aggrecanase-1 it was under 1000 nM; on Recombinant Human MMP-13 it was under 100 nM.
For `O=C(CCc1cccc(C2CC2(NS(=O)(=O)c2ccc(-c3cc(C(F)(F)F)on3)s2)C(=O)O)c1)N1CCOCC1` (stereo not drawn) [Example 2-234], in that order: at least 1000 nM, under 100 nM and under 100 nM.
On the same counts, the results for `CN1CCN(C(=O)CCc2cccc(C3CC3(NS(=O)(=O)c3ccc(-c4cc(C(F)(F)F)on4)s3)C(=O)O)c2)CC1` (stereo not drawn) [Example 2-235] are at least 1000 nM, under 1000 nM and under 100 nM.
For `O=C(O)C1(NS(=O)(=O)c2ccc(-c3cc(C(F)(F)F)on3)s2)CC1c1cccc(CCCO)c1` (stereo not drawn) [Example 2-236], in that order: at least 1000 nM, under 1000 nM and under 100 nM.
Consider `CC1C(c2ccccc2)C1(NS(=O)(=O)c1ccc(-c2ccc(Cl)cc2)s1)C(=O)O` (stereo not drawn) [Example 2-237], for which the figures for the concentration for half-maximal inhibition (IC50) at MMP-1, on aggrecanase-1 and on Recombinant Human MMP-13 were at least 1000 nM, under 100 nM and under 100 nM, respectively.
As for `CN1CCN(C(=O)OCCCc2cccc(C3CC3(NS(=O)(=O)c3ccc(-c4cc(C(F)(F)F)on4)s3)C(=O)O)c2)CC1` (stereo not drawn) [Example 2-238], the IC50 at MMP-1 was at least 1000 nM; at aggrecanase-1, under 1000 nM; on Recombinant Human MMP-13, under 100 nM.
On the same counts, the results for `O=C(OCCCc1cccc(C2CC2(NS(=O)(=O)c2ccc(-c3cc(C(F)(F)F)on3)s2)C(=O)O)c1)N1CCOCC1` (stereo not drawn) [Example 2-239] are at least 1000 nM, under 100 nM and under 100 nM.
